According to ChEMBL document CHEMBL1123092, “Psychotomimetic N-methyl-N-isopropyltryptamines. Effects of variation of aromatic oxygen substituents” (1985):

Tests used:
Rattus norvegicus [1] = organism: Rattus norvegicus; assay: Duration of time in hours, after ingestion at which central effects begin to decline was determined.; type: functional
[2] = […] and the effective dose required for the elicitation of the complete psychotomimetic spectrum was determined.; type: functional
Rattus norvegicus [3] = organism: Rattus norvegicus; assay: Onset time in minutes, between ingestion and the first noticeable symptoms was determined; type: functional
Rattus norvegicus [4] = organism: Rattus norvegicus; assay: […] and the effective dose required for the elicitation of the complete psychotomimetic spectrum was determined; f =Not effective at 50 mg; type: functional, organism-based

## COc1ccc2[nH]cc(CCN(C)C(C)C)c2c1
Rattus norvegicus [1]
  Duration: 3 h
[2]
  Effective dose: 5 mg/kg
Rattus norvegicus [3]
  Onset time: 9 min

## COc1cccc2c(CCN(C)C(C)C)c[nH]c12
Rattus norvegicus [4]
  Effective dose: Not effective at 50mg

## CC(C)N(C)CCc1c[nH]c2ccccc12
Rattus norvegicus [1]
  Duration: 3 h
[2]
  Effective dose: 25 mg/kg
Rattus norvegicus [3]
  Onset time: 40 min

## COc1cccc2[nH]cc(CCN(C)C(C)C)c12
Rattus norvegicus [1]
  Duration: 2 h
[2]
  Effective dose: 30 mg/kg
Rattus norvegicus [3]
  Onset time: 45 min

## CC(C)N(C)CCc1c[nH]c2cccc(O)c12
Rattus norvegicus [1]
  Duration: 6 h
[2]
  Effective dose: 10 mg/kg
Rattus norvegicus [3]
  Onset time: 20 min

## COc1cc2[nH]cc(CCN(C)C(C)C)c2cc1OC
Rattus norvegicus [4]
  Effective dose: Not effective at 50mg

## COc1ccc2c(CCN(C)C(C)C)c[nH]c2c1
Rattus norvegicus [4]
  Effective dose: Not effective at 50mg

## CC(C)N(C)CCc1c[nH]c2cc3ooc3cc12
Rattus norvegicus [4]
  Effective dose: Not effective at 50mg
